Results reported in paper PMC8036666, “Biological and Physico-Chemical Characteristics of Arginine-Rich Peptide Gemini Surfactants with Lysine and Cystine Spacers” (International Journal of Molecular Sciences, 2021).
Values after ≈ are worked out from the molar mass of the structure shown. Values joined by “and” are separate entries in the source; they are usually repeats but may differ in a detail not shown here. Equal entries are not always repeated. Where two headings read alike, the source gives them in different places. Where a SMILES comes first, the peptide text is derived from it. Bridges are numbered along the chain shown (N, C = ends). Roman numbers before positions name the chains, in order. Side-chain parts run from the residue outwards. [ ]: non-standard residue; d: D form. The star is where a group is joined. Myristoyl = CCCCCCCCCCCCCC(=O)*; Lauroyl = CCCCCCCCCCCC(=O)*; Decanoyl = CCCCCCCCCC(=O)*; Nle = CCCC[C@H](N)C(=O)O; Octanoyl = CCCCCCCC(=O)*

Legend:
[1] = Critical aggregation concentration by surface tension (Du Noüy ring, K100 tensiometer); format: physicochemical; settings: for CAC / Surface Tension at CAC: unbuffered aqueous solution, 298 K
Description: The identity of the purified peptides was confirmed with electrospray ionization mass spectrometry (ESI-MS) in positive ion mode. Results of MS analyses and net charge are attached in Supplementary Materials (Table S1). Peptides’ hydrophobicity was evaluated by analytical reversed-phase high-performance liquid chromatography (RP-HPLC). The critical aggregation concentrations (CACs) of the lipopeptides were determined in unbuffered aqueous solution at 298 K by measuring the surface tension as a function of lipopeptide concentration. The measurements were carried out by the Du Noüy ring method on a K100 tensiometer. The surface tension data were plotted against the logarithm of lipopeptide concentration. CAC was found as the intersection of two lines being linear regression of data below and above CAC.
The critical aggregation concentration (CAC) values were determined fully automatically using a K100 tensiometer (KRUSS, Hamburg, Germany) equipped with two micro dosimeters by measuring the surface tension vs. lipopeptide concentration. The measurements were performed in unbuffered aqueous solution at 298 K using the Du Noüy ring method. The accuracy of the surface tension measurements was 0.1 mN/m. The critical aggregation concentration (CAC) was defined as the intersection of two lines fitted to the experimental data collected before and after the inflection point.

[2] = system: human red blood cells (hRBCs); assay: Hemolysis assay; format: cell-based; settings: red cells of human, 1 h
Description: The hemolysis assay was performed by using the method reported previously. Fresh human red blood cells (hRBCs) with anticoagulant (EDTA) were rinsed three times with a PBS by centrifugation at 800× g for 10 min and diluted with PBS. The compounds were serially diluted on a 96-well microtiter polystyrene plate, and hRBCs were added up to a final volume of 100 μL. The compound concentration ranged between 0.5 and 256 μg/mL and the final hRBCs concentration was 4% (v/v). Controls for zero (blank) and 100% hemolysis consisted of hRBCs suspended in PBS and 1% of Triton-X 100 (Carl Roth GmbH, Karlsruhe, Germany), respectively. The plate was incubated for 1 h at 37 °C and then centrifuged (800× g, 10 min, 4 °C). Subsequently, the supernatant was […] to new microtiter plates, and the absorbance at 540 nm was measured (Multiskan GO Microplate Spectrophotometer, Thermo Fisher Scientific, Vantaa, Finland). All experiments were conducted in triplicate. HC50 was calculated using an ic50.tk tool. The protocol of the study was approved by the local Bioethics Committee at the Medical University of Gdańsk (NKBBN/262/2019, approval date: 10 June 2019).

HaCaT cells = format: cell-based, human; settings: 24 h
Description: Cells were trypsinized, and the medium was renewed 2–3 times per week. The cytotoxicity of compounds was assessed by the determination of cell metabolic activity by colorimetric CellTilter 96® Aqueous One Solution Cell Proliferation Assay (Promega, Madison, WI, USA), according to the manufacturer’s instructions. […] Every compound was medium-soluble in 37 °C; thus, the control cells were cultured with the medium. Serial dilutions of the tested compounds were always prepared prior to use. Cells were incubated with drugs for 24 h, and then, 20 μL of the CellTiter 96®AqueousOne Solution Reagent was added to each well containing cells maintained in 100 μL of culture medium.

[3] = system: Staphylococcus aureus ATCC 33591; settings: ATCC 33591, 24 h
Description: The Acinetobacter baumannii ATCC BAA-1605, Enterococcus faecium ATCC 700221, Escherichia coli ML-35 ATCC 43827, Klebsiella aerogenes ATCC 13048, Klebsiella pneumoniae ATCC 700603, Pseudomonas aeruginosa ATCC 9027, Staphylococcus aureus ATCC 25923, Staphylococcus aureus ATCC 33591, Candida albicans ATCC 10231, Candida glabrata ATCC 15126, strains were acquired from the American Type Culture Collection (ATCC). All the strains were stored at −80 °C in Roti-Store cryo vials and before the tests were transferred into fresh Mueller–Hinton broth (MHB, Biocorp, Warsaw, […], Steinheim, Germany) for fungi and incubated for 24 h at 37 °C. Then, the cultures were seeded on the Mueller–Hinton agar (BioMaxima, Lublin, Poland) or Sabouraud dextrose agar (SDA, BioMaxima, Lublin, Poland) plates, respectively, and incubated as just mentioned. These agar cultures were used for further microbiological assays. […]
(§1) The MICs were determined by the broth microdilution method according to the Clinical and Laboratory Standard Institute guidelines. […] The experiments were conducted on 96-well microtiter polystyrene plates (Kartell, Noviglio, Italy). The growth was assessed visually after incubation, and the MIC was assumed as the lowest peptide concentration at which a noticeable growth of microorganisms was inhibited. All experiments were conducted in triplicate.

[4] = system: Acinetobacter baumannii ATCC BAA 1605; settings: ATCC BAA 1605, 24 h
Description: (§2) The Acinetobacter baumannii ATCC BAA-1605, Enterococcus faecium ATCC 700221, Escherichia coli ML-35 ATCC 43827, Klebsiella aerogenes ATCC 13048, Klebsiella pneumoniae ATCC 700603, Pseudomonas aeruginosa ATCC 9027, Staphylococcus aureus ATCC 25923, Staphylococcus aureus ATCC 33591, Candida albicans ATCC 10231, Candida glabrata ATCC 15126, strains were acquired from the American Type Culture Collection (ATCC). All the strains were stored at −80 °C in Roti-Store cryo vials and before the tests were transferred into fresh Mueller–Hinton broth (MHB, Biocorp, Warsaw, Poland) for bacteria or RPMI-1640 (Sigma-Aldrich, Steinheim, Germany) for fungi and incubated for 24 h at 37 °C. Then, the cultures were seeded on the Mueller–Hinton agar (BioMaxima, Lublin, Poland) or Sabouraud dextrose agar (SDA, BioMaxima, Lublin, Poland) plates, respectively, and incubated as just mentioned. These agar cultures were used for further microbiological assays. Cell densities for all assays were adjusted spectrophotometrically (Multiskan GO Microplate Spectrophotometer, Thermo Fisher Scientific, Vantaa, Finland) at 600 and 530 nm for bacteria and fungi, respectively.
as §1

[5] = system: Enterococcus faecium ATCC 700221; settings: ATCC 700221, 24 h
Description: as §2, §1

[6] = system: Klebsiella aerogenes ATCC 13048; settings: ATCC 13048, 24 h
Description: as §2, §1

[7] = system: Klebsiella pneumoniae ATCC 700603; settings: ATCC 700603, 24 h
Description: as §2, §1

[8] = system: Pseudomonas aeruginosa ATCC 9027; settings: ATCC 9027, 24 h
Description: as §2, §1

[9] = system: Staphylococcus aureus ATCC 25923
Description: as §2, §1

CAC [1] | Surface Tension at CAC [1] [mN/m] | MIC Staphylococcus aureus ATCC 33591 [3] [µg/mL] | MIC Acinetobacter baumannii ATCC BAA 1605 [4] [µg/mL] | MIC Enterococcus faecium ATCC 700221 [5] [µg/mL] | MIC Klebsiella aerogenes ATCC 13048 [6] | MIC Klebsiella pneumoniae ATCC 700603 [7] | MIC Pseudomonas aeruginosa ATCC 9027 [8] [µg/mL] | MIC Staphylococcus aureus ATCC 25923 ([9]; planktonic culture) [µg/mL] | Compound | HC50 [2] [µg/mL] | IC50 (HaCaT cells) [µg/mL] | MIC Staphylococcus aureus ATCC 25923 ([9]; ATCC 25923, 24 h) [µg/mL] | increase in the CAC value by branching of the acyl chains ([1]; C7 compared with C3)
3.59 mM and 4482.4 μg/mL | 37 | 4 (≈ 3.2 µM) | 32 (≈ 25.6 µM) | 2 (≈ 1.6 µM) | 256 (−/−) µg/mL | 64 µg/mL (≈ 51.3 µM) | 4 (≈ 3.2 µM) | – | CCCCCCCC(=O)N[C@@H](CCCC)C(=O)N[C@@H](CCCNC(=N)N)C(=O)N[C@@H](CCCNC(=N)N)C(=O)NCCCC[C@H](NC(=O)[C@H](CCCNC(=N)N)NC(=O)[C@H](CCCNC(=N)N)NC(=O)[C@H](CCCC)NC(=O)CCCCCCC)C(N)=O [Compound B6] (Octanoyl-[Nle]RRK([Arg-Arg-Nle-Octanoyl])-NH2) | >256 | 164.17 ± 14.65 (≈ 131 µM) | 2 (≈ 1.6 µM) | –
0.25 mM and 305.4 μg/mL | 43 | 4 (≈ 3.26 µM) | 64 (≈ 52.1 µM) | 2 (≈ 1.63 µM) | 32 µg/mL (≈ 26.1 µM) | >256 (−/−) µg/mL | 8 (≈ 6.52 µM) | – | CCCCCCCCCCCC(=O)N[C@@H](CCCNC(=N)N)C(=O)N[C@@H](CCCNC(=N)N)C(=O)N[C@@H](CSSC[C@H](NC(=O)[C@H](CCCNC(=N)N)NC(=O)[C@H](CCCNC(=N)N)NC(=O)CCCCCCCCCCC)C(N)=O)C(N)=O [Compound C3] (I: Lauroyl-Arg-Arg-Cys-NH2 / II: Lauroyl-Arg-Arg-Cys-NH2; disulfide I:3-II:3) | 36.24 ± 2.35 | 119.47 ± 6.03 (≈ 97.3 µM) | 4 (≈ 3.26 µM) | –
0.06 mM and 71.1 μg/mL | 47 | 32 (≈ 24.9 µM) | 32 (≈ 24.9 µM) | 8 (≈ 6.23 µM) | 128 µg/mL (≈ 99.7 µM) | >256 (−/−) µg/mL | 64 (≈ 49.9 µM) | 64 (≈ 49.9 µM) | CCCCCCCCCCCCCC(=O)N[C@@H](CCCNC(=N)N)C(=O)N[C@@H](CCCNC(=N)N)C(=O)N[C@@H](CSSC[C@H](NC(=O)[C@H](CCCNC(=N)N)NC(=O)[C@H](CCCNC(=N)N)NC(=O)CCCCCCCCCCCCC)C(N)=O)C(N)=O [Compound C4] (I: Myristoyl-Arg-Arg-Cys-NH2 / II: Myristoyl-Arg-Arg-Cys-NH2; disulfide I:3-II:3) | 20.89 ± 1.06 | 54.52 ± 15.40 (≈ 42.5 µM) | – | –
0.31 mM and 365.7 μg/mL | 40 | 64 (≈ 53.8 µM) | 64 (≈ 53.8 µM) | 8 (≈ 6.72 µM) | 32 µg/mL (≈ 26.9 µM) | 32 µg/mL (≈ 26.9 µM) | 32 (≈ 26.9 µM) | – | CCCCCCCCCCCCCC(=O)N[C@@H](CCCNC(=N)N)C(=O)N[C@@H](CCCNC(=N)N)C(=O)NCCCC[C@H](NC(=O)[C@H](CCCNC(=N)N)NC(=O)[C@H](CCCNC(=N)N)NC(=O)CCCCCCCCCCCCC)C(N)=O [Compound B4] (Myristoyl-Arg-Arg-Lys([Arg-Arg-Myristoyl])-NH2) | 44.12 ± 4.70 | 32.39 ± 4.49 (≈ 27.2 µM) | 64 (≈ 53.8 µM) | –

More lines, now with the values behind:

Compound | CAC [1] | Surface Tension at CAC [1] [mN/m] | MIC Staphylococcus aureus ATCC 33591 [3] [µg/mL] | MIC Acinetobacter baumannii ATCC BAA 1605 [4] [µg/mL] | MIC Enterococcus faecium ATCC 700221 [5] [µg/mL] | MIC Klebsiella aerogenes ATCC 13048 [6] | MIC Klebsiella pneumoniae ATCC 700603 [7] | MIC Pseudomonas aeruginosa ATCC 9027 [8] [µg/mL] | MIC Staphylococcus aureus ATCC 25923 ([9]; planktonic culture) [µg/mL] | HC50 [2] [µg/mL] | IC50 (HaCaT cells) [µg/mL] | MIC Staphylococcus aureus ATCC 25923 ([9]; ATCC 25923, 24 h) [µg/mL] | increase in the CAC value by branching of the acyl chains ([1]; C7 compared with C3)
CCCCCCCCCC(=O)N[C@@H](CCCNC(=N)N)C(=O)N[C@@H](CCCNC(=N)N)C(=O)N[C@@H](CSSC[C@H](NC(=O)[C@H](CCCNC(=N)N)NC(=O)[C@H](CCCNC(=N)N)NC(=O)CCCCCCCCC)C(N)=O)C(N)=O [Compound C2] (I: Decanoyl-Arg-Arg-Cys-NH2 / II: Decanoyl-Arg-Arg-Cys-NH2; disulfide I:3-II:3) | 3.30 mM and 3832.7 μg/mL | 43 | 1 (≈ 0.854 µM) | 16 (≈ 13.7 µM) | 2 (≈ 1.71 µM) | 128 µg/mL (≈ 109 µM) | >256 (−/−) µg/mL | 8 (≈ 6.83 µM) | – | >256 | 231.17 ± 24.37 (≈ 197 µM) | 2 (≈ 1.71 µM) | –
CCCCCCCCCC(=O)N[C@@H](CCCNC(=N)N)C(=O)N[C@@H](CCCNC(=N)N)C(=O)NCCCC[C@H](NC(=O)[C@H](CCCNC(=N)N)NC(=O)[C@H](CCCNC(=N)N)NC(=O)CCCCCCCCC)C(N)=O [Compound B2] (Decanoyl-Arg-Arg-Lys([Arg-Arg-Decanoyl])-NH2) | 3.69 mM and 3980.0 μg/mL | 36 | 1 (≈ 0.927 µM) | 8 (≈ 7.42 µM) | 2 (≈ 1.85 µM) | 128 µg/mL (≈ 119 µM) | 128 µg/mL (≈ 119 µM) | 8 (≈ 7.42 µM) | – | >256 | 150.03 ± 3.15 (≈ 139 µM) | 1 (≈ 0.927 µM) | –
CCCCCCC(CCCC)C(=O)N[C@@H](CCCNC(=N)N)C(=O)N[C@@H](CCCNC(=N)N)C(=O)N[C@@H](CSSC[C@H](NC(=O)[C@H](CCCNC(=N)N)NC(=O)[C@H](CCCNC(=N)N)NC(=O)C(CCCC)CCCCCC)C(N)=O)C(N)=O (stereo partly drawn) [Compound C7] | 6.21 mM and 7628.1 μg/mL | 35 | 2 (≈ 1.63 µM) | 32 (≈ 26.1 µM) | 2 (≈ 1.63 µM) | 16 µg/mL (≈ 13 µM) | 32 µg/mL (≈ 26.1 µM) | 4 (≈ 3.26 µM) | – | >256 | 163.98 ± 13.66 (≈ 134 µM) | 2 (≈ 1.63 µM) | ca. 25 fold
